Here are results for eleven compounds from ChEMBL document CHEMBL1201862, “PubChem BioAssay data set” (2004).

Among the test systems are OVCAR-3; RPMI-8226; A498; ACHN; SF-295; MOLT-4; HOP-62; OVCAR-4; HCT-116; A549; HCC 2998; SK-MEL-5; CAKI-1; NCI-H23; Malme-3M; SR; K562; CCRF-CEM; MDA-MB-435.
Test in all cases: inhibition of tumour cell growth, NCI panel, 48 h

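Dose response: 5 concentrations. Exposure: 48 h. Format: 96-well plates. Endpoint: linear interpolation; highest concentration if not reached. Here, GI50 denotes the concentration required for 50% inhibition of growth.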 Active and inactive are the calls of the source. Rule as the data show it: active = GI50 up to about 1.1 µM and inactive = higher.

In the case of `COc1cccc(/C=C/C(=O)c2sc(C(N)=S)nc2C)c1O`, the GI50 was > 60.3 µM (inactive) in the assay with OVCAR-3; 20.5 µM (inactive) in the assay with RPMI-8226; > 100 µM (inactive) in the assay on A498; > 100 µM (inactive) in the assay on ACHN; > 94.6 µM (inactive) with SF-295; 25.1 µM (inactive) in the assay on MOLT-4. For the same compound, the GI50 is > 100 µM (inactive) with HOP-62; > 72.8 µM (inactive) in the assay with OVCAR-4; 38.5 µM (inactive) with HCT-116; > 100 µM (inactive) in the assay on A549; 75.5 µM (inactive) in the assay with HCC 2998; > 100 µM (inactive) with SK-MEL-5. Also, the GI50 in the assay with CAKI-1 was > 100 µM (inactive); in the assay with NCI-H23, 68.1 µM (inactive); in the assay with Malme-3M it was > 100 µM (inactive); in the assay on SR, 12.5 µM (inactive); in the assay on K562, 42.4 µM (inactive); in the assay with CCRF-CEM it was 21.4 µM (inactive).

Regarding `N#Cc1ccccc1C(Cl)(Cl)c1cnccn1`, the GI50 in the assay on A498 is 92.7 µM (inactive); in the assay with ACHN, 59.6 µM (inactive); in the assay on SF-295, 47 µM (inactive); in the assay on MOLT-4, 22.6 µM (inactive); in the assay with HOP-62 it was 72.4 µM (inactive); with OVCAR-4, > 100 µM (inactive). Also, the GI50 in the assay on A549 is 83.9 µM (inactive); with HCC 2998 it was 32.4 µM (inactive); with SK-MEL-5, 20.4 µM (inactive); in the assay with CAKI-1, > 100 µM (inactive); in the assay with NCI-H23, 38.5 µM (inactive); with SR, 34 µM (inactive). The GI50 with K562 is 34.3 µM (inactive); in the assay with CCRF-CEM, 20 µM (inactive).

As to `CC1CCC(=O)C(C(O)CC2CC(=O)N(c3ccccc3)C(=O)C2)C1` (stereo not given), the GI50 with OVCAR-3, in the assay with RPMI-8226, in the assay on A498, with ACHN, in the assay on SF-295 and in the assay on MOLT-4 was > 100 µM (inactive) each time. Further, the GI50 in the assay on HOP-62, with OVCAR-4, in the assay on HCT-116, in the assay with A549, with HCC 2998 and in the assay with CAKI-1 was > 100 µM (inactive) throughout. Also, the GI50 with NCI-H23, with Malme-3M, in the assay on SR, in the assay with K562 and in the assay on CCRF-CEM was > 100 µM (inactive) in each case.

On to `CC1=C(C(=O)Nc2ccccc2C)C(c2ccc(Cl)c(Cl)c2)C(C(=O)Nc2ccccc2C)=C(C)N1`, for which the GI50 in the assay with OVCAR-3 was 17.6 µM (inactive); in the assay with RPMI-8226, 16.1 µM (inactive); in the assay on A498, 27.5 µM (inactive); in the assay with ACHN, 27.3 µM (inactive); with SF-295, 21.6 µM (inactive); in the assay on MOLT-4, 12.6 µM (inactive). Moreover, the GI50 is 28.6 µM (inactive) in the assay on HOP-62; 16.4 µM (inactive) in the assay on OVCAR-4; 16 µM (inactive) in the assay on HCT-116; 24.2 µM (inactive) with A549; 25.6 µM (inactive) with HCC 2998; 17.5 µM (inactive) with SK-MEL-5. In addition, the GI50 is 26.7 µM (inactive) in the assay on CAKI-1; 19.8 µM (inactive) in the assay on NCI-H23; 22.5 µM (inactive) in the assay with Malme-3M; 12.7 µM (inactive) with SR; 20.3 µM (inactive) in the assay on K562; 22.7 µM (inactive) in the assay with CCRF-CEM.

With `NCCCCNCCCNC(=O)c1nc(-c2nc(CCN)sc2Cl)sc1Cl`, the GI50 in the assay with OVCAR-3 was > 100 µM (inactive); in the assay on RPMI-8226 it was 31.3 µM (inactive); in the assay on A498, > 100 µM (inactive); with ACHN, > 100 µM (inactive); in the assay with SF-295, 59.8 µM (inactive); in the assay on MOLT-4, > 100 µM (inactive). Besides, the GI50 in the assay with HOP-62 is 59.7 µM (inactive); in the assay on OVCAR-4, 29.9 µM (inactive); in the assay on HCT-116, 9.48 µM (inactive); with A549, 44.5 µM (inactive); with HCC 2998, > 100 µM (inactive); in the assay with SK-MEL-5 it was > 100 µM (inactive). In addition, the GI50 with CAKI-1 is > 100 µM (inactive); with NCI-H23 it was 37.9 µM (inactive); with Malme-3M, 58.6 µM (inactive); with SR it was 6.87 µM (inactive); with K562 it was 9.35 µM (inactive); in the assay on CCRF-CEM, 89.5 µM (inactive).

Consider `CCOC(=O)/C=C1\Oc2ccccc2C1(C)O` (stereo not given), for which the GI50 in the assay with OVCAR-3, in the assay on RPMI-8226, in the assay on A498, in the assay with ACHN, in the assay with SF-295 and with MOLT-4 was > 100 µM (inactive) throughout. Further, the GI50 with HOP-62, in the assay on OVCAR-4, with HCT-116, in the assay with A549, in the assay with HCC 2998 and in the assay on SK-MEL-5 was > 100 µM (inactive) each time. Moreover, the GI50 with CAKI-1, with NCI-H23, in the assay with Malme-3M, in the assay with SR, with K562 and in the assay on CCRF-CEM was > 100 µM (inactive) each time.

Regarding `NC(=O)c1ccccc1NC(=O)C(=O)Nc1n[nH]c(N)n1`, the GI50 in the assay on OVCAR-3, in the assay on RPMI-8226, with A498, in the assay on ACHN, in the assay on SF-295 and in the assay on MOLT-4 was > 100 µM (inactive) in each case. The GI50 with HOP-62, in the assay on OVCAR-4, in the assay with HCT-116, in the assay with A549, in the assay on HCC 2998 and in the assay on SK-MEL-5 was > 100 µM (inactive) throughout. The GI50 in the assay with CAKI-1, in the assay on NCI-H23, with Malme-3M, in the assay on SR, with K562 and with CCRF-CEM was > 100 µM (inactive) in each case.

On to `COc1ccc2c(c1)c(=O)c1ccccc1n2/C=C/C(=O)O`, for which the GI50 in the assay on OVCAR-3, with RPMI-8226, in the assay with A498, in the assay on ACHN, in the assay on SF-295 and with MOLT-4 was > 100 µM (inactive) throughout. Further, the GI50 with HOP-62, with OVCAR-4, in the assay on HCT-116, in the assay with A549, with HCC 2998 and with SK-MEL-5 was > 100 µM (inactive) each time. For the same compound, the GI50 in the assay on CAKI-1 is > 100 µM (inactive); with NCI-H23, > 100 µM (inactive); in the assay on Malme-3M, > 100 µM (inactive); in the assay on SR, > 41.7 µM (inactive); in the assay with K562 it was > 100 µM (inactive); in the assay with CCRF-CEM it was > 48.4 µM (inactive).

With `O=C(Nc1nc2ncn(CCO)c2c(=O)[nH]1)c1ccccc1`, the GI50 with OVCAR-3, in the assay with RPMI-8226, in the assay with A498, with ACHN, in the assay on SF-295 and with HOP-62 was > 100 µM (inactive) in each case. For the same compound, the GI50 with OVCAR-4, in the assay with HCT-116, in the assay on A549, in the assay on SK-MEL-5, in the assay on CAKI-1 and in the assay on Malme-3M was > 100 µM (inactive) throughout. The GI50 in the assay on SR, with K562 and in the assay with CCRF-CEM was > 100 µM (inactive) each time.

With `COc1ccc2c(c1)O[C@H]1c3ccc(O)cc3OC[C@@H]21`, the GI50 in the assay with OVCAR-3 was 29.2 µM (inactive); in the assay with RPMI-8226, 25.7 µM (inactive); with ACHN, 27.2 µM (inactive); in the assay on SF-295, 35.2 µM (inactive); in the assay with MOLT-4, 19.8 µM (inactive); in the assay on HOP-62, 45.5 µM (inactive). Besides, the GI50 with OVCAR-4 was 34.6 µM (inactive); in the assay on HCT-116 it was 27.6 µM (inactive); in the assay with A549 it was 28.6 µM (inactive); in the assay with HCC 2998, 22.9 µM (inactive); in the assay with SK-MEL-5 it was 17.3 µM (inactive); in the assay on CAKI-1, 24.1 µM (inactive). Besides, the GI50 is 26 µM (inactive) in the assay on NCI-H23; 34.8 µM (inactive) in the assay with Malme-3M; 14.3 µM (inactive) in the assay with SR; 30.1 µM (inactive) in the assay with K562; 19.2 µM (inactive) in the assay with CCRF-CEM.

With `C/C(=N\N=C(/S)N1CCCCCC1)c1cccc[n+]1[O-]`, the GI50 is 9.57 µM (inactive) in the assay with MDA-MB-435; 0.61 µM (active) with OVCAR-3; 0.116 µM (active) with RPMI-8226; 21.6 µM (inactive) in the assay with A498; 4.58 µM (inactive) in the assay on ACHN; 5.3 µM (inactive) in the assay on SF-295. In addition, the GI50 in the assay on MOLT-4 was 0.129 µM (active); in the assay on HOP-62, 1.12 µM (active); in the assay with OVCAR-4, 8.17 µM (inactive); in the assay with HCT-116, 0.433 µM (active); in the assay on A549, 4.36 µM (inactive); in the assay with HCC 2998 it was 1.71 µM (inactive). Moreover, the GI50 with SK-MEL-5 was 2.22 µM (inactive); in the assay with CAKI-1 it was 6.37 µM (inactive); in the assay on NCI-H23, 5.82 µM (inactive); with Malme-3M it was 1.6 µM (inactive); with SR, 4.01 µM (inactive); in the assay with K562, 0.0883 µM (active). Moreover, the GI50 in the assay on CCRF-CEM was 0.109 µM (active).
